Patent publication US10428054B2, “Kynurenine-3-monooxygenase inhibitors, pharmaceutical compositions, and methods of use thereof” (CHDI Foundation, Inc., priority 2013, dated 2019)
Like-named read-outs stand apart in the source and are kept apart here.

Target: T1, KMO mouse enzyme (Mus musculus, UniProt Q91WN4)
T1 construct: KMO enzyme prepared at Evotec from mouse liver (4-6 weeks old) via mitochondria isolation; from tissue; host or cells: mouse liver (4-6 weeks old), mitochondria isolation, prepared at Evotec
T1 sequence (Q91WN4 whole entry): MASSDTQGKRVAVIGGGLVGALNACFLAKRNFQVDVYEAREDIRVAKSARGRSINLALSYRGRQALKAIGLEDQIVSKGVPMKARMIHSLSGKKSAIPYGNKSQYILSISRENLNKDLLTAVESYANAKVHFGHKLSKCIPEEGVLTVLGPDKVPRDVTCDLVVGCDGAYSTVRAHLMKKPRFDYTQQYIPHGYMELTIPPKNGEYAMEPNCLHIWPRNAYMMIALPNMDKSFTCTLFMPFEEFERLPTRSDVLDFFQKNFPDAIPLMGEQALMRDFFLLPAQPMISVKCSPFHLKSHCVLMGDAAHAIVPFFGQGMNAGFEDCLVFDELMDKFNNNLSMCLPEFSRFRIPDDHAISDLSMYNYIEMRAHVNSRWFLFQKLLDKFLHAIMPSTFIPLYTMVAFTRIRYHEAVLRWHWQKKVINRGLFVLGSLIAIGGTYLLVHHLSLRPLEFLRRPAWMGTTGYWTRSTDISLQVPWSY
Assay: KMO enzyme assay: L-Kynurenine hydroxylation to 3-Hydroxy-Kynurenine by LC/MS (protocols substantially similar to Biology Example 3)
Type: biochemical
Settings: for inhibition at 10 µM: compound at 10 uM (stated in cell; head says 30 μM)
Protocol: A method of monitoring L-Kynurenine (KYN) hydroxylation to form 3-Hydroxy-Kynurenine (30H-KYN) by LC/MS is described. Product is quantified by multiple reaction monitoring (MRM method).
• Compound: Stock concentrations: 10 mM in 100% DMSO • Enzyme: KMO enzyme prepared at Evotec from mouse liver (4-6 weeks old) via mitochondria isolation as described in the literature • Substrate: L-Kynurenine (Sigma: Cat# K3750, stock concentration: 10 mM in 100 mM potassium phosphate buffer, pH 7.4) Assay Conditions: • Buffer: 100 mM potassium phosphate, pH 7.4, 200 μM NADPH, 0.4 U/ml G6P-DH (Glucose 6-phosphate Dehydrogenase), 3 mM G6P (D-Glucose 6-phosphate) • Assay Volume: 40 μl • Plate Format: 384 well plate, transparent (Matrix) • Read-Out: product (30H-KYN) quantification using product specific MRM • Reader: LC/MS/MS Assay Protocol: • prepare serial dilution (factor 3) of compound in 100% DMSO (top concentration=10 mM, 100% DMSO) • [8 points: 10 mM; 3.33 mM; 1.11 mM; 0.37 mM; 0.12 mM; 0.04 mM; 0.0137 mM; 0.0045 mM, 0.0015 mM] • prepare […] concentrated solution of each compound concentration (top concentration 300 μM, 3% DMSO) in assay buffer • [concentrations: 300 μM; 100 μM; 33.3 μM; 11.1 μM; 3.70 μM; 1.23 μM; 0.41 μM; 0.137 μM] • prepare substrate (10 mM) at concentration of 1 mM in assay buffer • assay mix: 4 μl compound/well of each concentration+24 μl assaybuffer/well+8 μl KMO mouse enzyme+4 μl 1 mM substrate (final concentration=100 μM) • [final compound top concentration: 30 μM; 0.3% DMSO] • [final compound bottom concentration: 0.0137 μM; 0.3% DMSO] • positive control: 4 μl […] FCE28833 in assay buffer, 0.5% DMSO [final assay concentration=50 μM]+24 μl assaybuffer/well+8 μl KMO mouse enzyme+4 μl 1 mM substrate[final concentration=100 μM] • negative control: 28 μl assay buffer/well+8 μl KMO mouse enzyme+4 μl 1 mM substrate [final concentration=100 μM] • incubate 40 min at RT • add 40 μl/well 10% trichloro acetic acid in water to stop the assay and precipitate protein • centrifuge plate for 3 min at 4000 rpm • product detection by LC/MS (injection of 20 μl/well, 2 fold overfill of the 10 μl sample loop) Data Analysis:
IC50's are calculated using automated fitting algorithm (A+ Analysis).
Using the assay protocols substantially similar to those of Biology Example 3, the following compounds were tested.

[1] = compound at 30 μM, Biology Example 4 table, read-out: Percent Inhibition at 30 μM
[2] = compound at 30 μM, tables of Methods 1-6, read-out: % Inhibition at 30 μM

Row | Compound | inhibition at 30 µM [1] [%] | % Inhibition at 30 μM (compound at 30 μM, tables of Methods 1-6, 30 µM) [%] | inhibition at 30 µM [2] [%] | inhibition at 10 µM (Biology Example 4 table, read-out: Percent Inhibition (at 10 uM)) [%] | inhibition at 10 µM (table of Method 2, read-out: % Inhibition (at 10 uM)) [%]
1 | O=C(O)[C@H]1C[C@@H]1C(=O)c1ccc(Cl)s1 [Example 1, Method 1, (1S,2S)-2-[(5-Chlorothiophen-2-yl)carbonyl]cyclopropane-1-carboxylic acid] | 101 |  | 101 |  | 
2 | O=C(O)[C@H]1C[C@@H]1C(=O)c1nccs1 [Example 1, Method 2, (1S,2S)-2-[(1,3-Thiazol-2-yl)carbonyl]cyclopropane-1-carboxylic acid] |  |  |  | 28.7 | 28.7
3 | O=C(O)[C@H]1C[C@@H]1C(=O)c1cccs1 [Example 3, Method 1, (1S,2S)-2-[(Thiophen-2-yl)carbonyl]cyclopropane-1-carboxylic acid] | 80.3 |  | 80.3 |  | 
4 | O=C(O)[C@H]1C[C@@H]1C(=O)c1cc(Cl)c2ncccc2c1 [Example 3, Method 3, (1S,2S)-2-(8-Chloroquinoline-6-carbonyl)cyclopropane-1-carboxylic acid] | 100 |  | 100 |  | 

Continued, values first:

Row | inhibition at 30 µM [1] [%] | % Inhibition at 30 μM (compound at 30 μM, tables of Methods 1-6, 30 µM) [%] | inhibition at 30 µM [2] [%] | inhibition at 10 µM (Biology Example 4 table, read-out: Percent Inhibition (at 10 uM)) [%] | inhibition at 10 µM (table of Method 2, read-out: % Inhibition (at 10 uM)) [%] | Compound
5 | 74.5 | 98.3 |  |  |  | Cc1nc2ccc(C(=O)[C@H]3C[C@@H]3C(=O)O)cc2s1 [Example 1, Method 3, (1S,2S)-2-(2-Methyl-1,3-benzothiazole-6-carbonyl)cyclopropane-1-carboxylic acid]
6 | 91.8 |  | 91.8 |  |  | O=C(O)[C@H]1C[C@@H]1C(=O)c1nc2ccccc2s1 [Example 2, Method 2, (1S,2S)-2-[(1,3-Benzothiazol-2-yl)carbonyl]cyclopropane-1-carboxylic acid]
7 | 100 |  | 100 |  |  | O=C(O)[C@H]1C[C@@H]1C(=O)c1cc(Cl)c2occc2c1 [Example 1, Method 4, (1S,2S)-2-(7-Chloro-1-benzofuran-5-carbonyl)cyclopropane-1-carboxylic acid]
8 | 45.6 |  | 45.6 |  |  | O=C(O)[C@H]1C[C@@H]1C(=O)c1ccccn1 [Example 3, Method 2, (1S,2S)-2-[(Pyridin-2-yl)carbonyl]cyclopropane-1-carboxylic acid]
9 | 101 |  | 101 |  |  | O=C(O)[C@H]1C[C@@H]1C(=O)c1cc(Cl)c2nccnc2c1 [Example 2, Method 3, (1S,2S)-2-(8-Chloroquinoxaline-6-carbonyl)cyclopropane-1-carboxylic acid]
10 | 83.2 |  | 83.2 |  |  | O=C(O)[C@H]1C[C@@H]1C(=O)c1ccsc1 [Example 2, Method 1, (1S,2S)-2-[(Thiophen-3-yl)carbonyl]cyclopropane-1-carboxylic acid]
11 |  |  | 102 |  |  | Cc1cc2cc(C(=O)[C@H]3C[C@@H]3C(=O)O)cc(Cl)c2o1 [Example 1, Method 6, (1S,2S)-2-(7-chloro-2-methyl-1-benzofuran-5-carbonyl)cyclopropane-1-carboxylic acid]
